Results published in ChEMBL document CHEMBL4396913, “Synthesis and biological evaluation of hybrid quinolone-based quaternary ammonium antibacterial agents” (Eur J Med Chem, 2019).
Converted amounts (≈) assume the structure as drawn.

What was measured:
[1] = Lipophilicity, log k of the compound at 100 ug/ml by micellar electrokinetic chromatography; assay type: physicochemical
Staphylococcus aureus [2] = assay: Antibacterial activity against Staphylococcus aureus ATCC 6538 cultured in MH medium assessed as reduction in bacterial growth incubated for 48 hrs by microbroth dilution method; assay type: functional; details: ATCC 6538, 48 h
Staphylococcus aureus [3] = assay: Bactericidal activity against Staphylococcus aureus ATCC 6538 cultured in MH medium assessed as reduction in bacterial survival incubated for 48 hrs by microbroth dilution method; assay type: functional; details: ATCC 6538, 48 h
Staphylococcus aureus [4] = assay: Antibacterial activity against methicillin resistant Staphylococcus aureus N315 cultured in MH medium assessed as reduction in bacterial growth incubated for 48 hrs by microbroth dilution method; assay type: functional; details: N315, 48 h
Staphylococcus aureus [5] = assay: Bactericidal activity against methicillin resistant Staphylococcus aureus N315 cultured in MH medium assessed as reduction in bacterial survival incubated for 48 hrs by microbroth dilution method; assay type: functional; details: N315, 48 h
[6] = test system: Staphylococcus epidermidis; assay: Antibacterial activity against Staphylococcus epidermidis ATCC 14990 cultured in MH medium assessed as reduction in bacterial growth incubated for 48 hrs by microbroth dilution method; assay type: functional; details: ATCC 14990, 48 h
[7] = test system: Staphylococcus epidermidis; assay: Bactericidal activity against Staphylococcus epidermidis ATCC 14990 cultured in MH medium assessed as reduction in bacterial survival incubated for 48 hrs by microbroth dilution method; assay type: functional; details: ATCC 14990, 48 h
Enterococcus hirae [8] = assay: Antibacterial activity against Enterococcus hirae ATCC 1052 cultured in BHI medium assessed as reduction in bacterial growth incubated for 48 hrs by microbroth dilution method; assay type: functional; details: ATCC 1052, 48 h
Enterococcus hirae [9] = assay: Bactericidal activity against Enterococcus hirae ATCC 1052 cultured in BHI medium assessed as reduction in bacterial survival incubated for 48 hrs by microbroth dilution method; assay type: functional; details: ATCC 1052, 48 h
Bacillus spizizenii [10] = assay: Antibacterial activity against Bacillus subtilis ATCC 6633 cultured in MH medium assessed as reduction in bacterial growth incubated for 48 hrs by microbroth dilution method; assay type: functional; details: ATCC 6633, 48 h
Bacillus spizizenii [11] = assay: Bactericidal activity against Bacillus subtilis ATCC 6633 cultured in MH medium assessed as reduction in bacterial survival incubated for 48 hrs by microbroth dilution method; assay type: functional; details: ATCC 6633, 48 h
Escherichia coli [12] = assay: Antibacterial activity against Escherichia coli ATCC 8739 cultured in MH medium assessed as reduction in bacterial growth incubated for 48 hrs by microbroth dilution method; assay type: functional; details: ATCC 8739, 48 h
Escherichia coli [13] = assay: Bactericidal activity against Escherichia coli ATCC 8739 cultured in MH medium assessed as reduction in bacterial survival incubated for 48 hrs by microbroth dilution method; assay type: functional; details: ATCC 8739, 48 h
Pseudomonas aeruginosa [14] = assay: Antibacterial activity against Pseudomonas aeruginosa ATCC 9027 cultured in MH medium assessed as reduction in bacterial growth incubated for 48 hrs by microbroth dilution method; assay type: functional; details: ATCC 9027, 48 h
Pseudomonas aeruginosa [15] = assay: Bactericidal activity against Pseudomonas aeruginosa ATCC 9027 cultured in MH medium assessed as reduction in bacterial survival incubated for 48 hrs by microbroth dilution method; assay type: functional; details: ATCC 9027, 48 h
Proteus vulgaris [16] = assay: Antibacterial activity against Proteus vulgaris NCTC 4635 cultured in MH medium assessed as reduction in bacterial growth incubated for 48 hrs by microbroth dilution method; assay type: functional; details: NCTC 4635, 48 h
Proteus vulgaris [17] = assay: Bactericidal activity against Proteus vulgaris NCTC 4635 cultured in MH medium assessed as reduction in bacterial survival incubated for 48 hrs by microbroth dilution method; assay type: functional; details: NCTC 4635, 48 h
Staphylococcus aureus [18] = assay: Antibacterial activity against methicillin resistant Staphylococcus aureus 6347 cultured in MH medium assessed as reduction in bacterial growth incubated for 48 hrs by microbroth dilution method; assay type: functional; details: Staphylococcus aureus, 6347, 48 h
Staphylococcus aureus [19] = assay: Bactericidal activity against methicillin resistant Staphylococcus aureus 6347 cultured in MH medium assessed as reduction in bacterial survival incubated for 48 hrs by microbroth dilution method; assay type: functional; details: Staphylococcus aureus, 6347, 48 h
[20] = test system: Staphylococcus epidermidis; assay: Antibacterial activity against methicillin resistant Staphylococcus epidermidis ATCC 13199 cultured in MH medium assessed as reduction in bacterial growth incubated for 48 hrs by microbroth dilution method; assay type: functional; details: ATCC 13199, 48 h
[21] = test system: Staphylococcus epidermidis; assay: Bactericidal activity against methicillin resistant Staphylococcus epidermidis ATCC 13199 cultured in MH medium assessed as reduction in bacterial survival incubated for 48 hrs by microbroth dilution method; assay type: functional; details: ATCC 13199, 48 h
Streptococcus pneumoniae [22] = assay: Antibacterial activity against Streptococcus pneumoniae cultured in MH medium assessed as reduction in bacterial growth incubated for 48 hrs by microbroth dilution method; assay type: functional
Streptococcus pneumoniae [23] = assay: Bactericidal activity against Streptococcus pneumoniae cultured in MH medium assessed as reduction in bacterial survival incubated for 48 hrs by microbroth dilution method; assay type: functional
Serratia marcescens [24] = assay: Antibacterial activity against Serratia marcescens ATCC 12795 cultured in MH medium assessed as reduction in bacterial growth incubated for 48 hrs by microbroth dilution method; assay type: functional; details: ATCC 12795, 48 h
Serratia marcescens [25] = assay: Bactericidal activity against Serratia marcescens ATCC 12795 cultured in MH medium assessed as reduction in bacterial survival incubated for 48 hrs by microbroth dilution method; assay type: functional; details: ATCC 12795, 48 h
Proteus vulgaris [26] = assay: Resistance index, ratio of MIC for Proteus vulgaris NCTC 4635 measured after 5 dilution steps to MIC for Proteus vulgaris NCTC 4635 measured after 48 hrs incubation by microbroth dilution method; assay type: functional
Proteus vulgaris [27] = assay: Resistance index, ratio of MIC for Proteus vulgaris NCTC 4635 measured after 15 passages to MIC for Proteus vulgaris NCTC 4635 measured after 48 hrs incubation by microbroth dilution method; assay type: functional
[28] = test system: Staphylococcus epidermidis; assay: Ratio of gatifloxacin resistance index to compound resistance index for methicillin resistant Staphylococcus epidermidis ATCC 13199 by microbroth dilution method; assay type: functional
Escherichia coli [29] = assay: Antibacterial activity against […] Escherichia coli ATCC 8739 assessed as reduction in bacterial growth incubated for 48 hrs in presence of 50 ug/ml […], PAbetaN by microbroth dilution method; assay type: functional; details: ATCC 8739, 48 h
Escherichia coli [30] = assay: Bactericidal activity against […] Escherichia coli ATCC 8739 assessed as reduction in bacterial survival incubated for 48 hrs in presence of 50 ug/ml […], PAbetaN by microbroth dilution method; assay type: functional; details: ATCC 8739, 48 h
HEK293 [31] = assay: Cytotoxicity against human HEK293 cells assessed as cell viability upto 20 uM incubated for 72 hrs by MTT assay; assay type: cell-based; details: hek293, 72 h
HEK293 [32] = assay: Cytotoxicity against human HEK293 cells assessed as changes in cell morphology upto 20 uM incubated for 72 hrs by MTT assay; assay type: cell-based; details: hek293, 72 h
Proteus vulgaris [33] = assay: Antibacterial activity against Proteus vulgaris NCTC 4635 measured after 15 passages by microbroth dilution method; assay type: functional

For COc1c(N2CCNC(C)C2)c(F)cc2c(=O)c(C(=O)O)cn(C3CC3)c12 (configuration not stated) [GATIFLOXACIN], the “log K” value [1] was 0.101, the MIC (Staphylococcus aureus [2]) was 0.25 µg/mL (≈ 0.666 µM) and the MBC (Staphylococcus aureus [3]) was 0.25 µg/mL (≈ 0.666 µM). It also gave an MIC (Staphylococcus aureus [4]) of 0.125 µg/mL (≈ 0.333 µM), an MBC (Staphylococcus aureus [5]) of 0.125 µg/mL (≈ 0.333 µM) and an MIC [6] of 0.125 µg/mL (≈ 0.333 µM). The MBC [7] was 0.25 µg/mL (≈ 0.666 µM), the MIC (Enterococcus hirae [8]) was 8 µg/mL (≈ 21.3 µM) and the MBC (Enterococcus hirae [9]) was 16 µg/mL (≈ 42.6 µM). For the same compound, the MIC (Bacillus spizizenii [10]) was 0.032 µg/mL (≈ 0.0852 µM), the MBC (Bacillus spizizenii [11]) was 0.063 µg/mL (≈ 0.168 µM) and the MIC (Escherichia coli [12]) was 0.016 µg/mL (≈ 0.0426 µM). It also gave an MBC (Escherichia coli [13]) of 0.032 µg/mL (≈ 0.0852 µM), an MIC (Pseudomonas aeruginosa [14]) of 0.25 µg/mL (≈ 0.666 µM) and an MBC (Pseudomonas aeruginosa [15]) of 0.25 µg/mL (≈ 0.666 µM). The MIC (Proteus vulgaris [16]) was 0.008 µg/mL (≈ 0.0213 µM), the MBC (Proteus vulgaris [17]) was 0.008 µg/mL (≈ 0.0213 µM) and the MIC (Staphylococcus aureus [18]) was 0.125 µg/mL (≈ 0.333 µM). The MBC (Staphylococcus aureus [19]) was 0.125 µg/mL (≈ 0.333 µM), the MIC [20] was 0.063 µg/mL (≈ 0.168 µM) and the MBC [21] was 0.063 µg/mL (≈ 0.168 µM). The MIC (Streptococcus pneumoniae [22]) was 1 µg/mL (≈ 2.66 µM), the MBC (Streptococcus pneumoniae [23]) was 256 µg/mL (≈ 682 µM) and the MIC (Serratia marcescens [24]) was 0.25 µg/mL (≈ 0.666 µM). The MBC (Serratia marcescens [25]) was 0.5 µg/mL (≈ 1.33 µM) and the Ratio (Proteus vulgaris [26]) was 32.

With COc1c(N2CC[N+]3(CN4C(C)=CC(C)=C(C(=O)O)C4=N3)C(C)C2)c(F)cc2c(=O)c(C(=O)O)cn(C3CC3)c12.[Cl-] (configuration not stated) the “log K” value [1] was -0.408, the MIC (Staphylococcus aureus [2]) was 8 µg/mL and the MBC (Staphylococcus aureus [3]) was 16 µg/mL. It also gave an MIC (Staphylococcus aureus [4]) of 8 µg/mL, an MBC (Staphylococcus aureus [5]) of 8 µg/mL and an MIC [6] of 8 µg/mL. The MBC [7] was 16 µg/mL, the MIC (Enterococcus hirae [8]) was over 512 µg/mL and the MIC (Bacillus spizizenii [10]) was 2 µg/mL. The MBC (Bacillus spizizenii [11]) was 2 µg/mL, the MIC (Escherichia coli [12]) was 2 µg/mL and the MBC (Escherichia coli [13]) was 2 µg/mL. The MIC (Pseudomonas aeruginosa [14]) was 32 µg/mL, the MBC (Pseudomonas aeruginosa [15]) was 256 µg/mL and the MIC (Proteus vulgaris [16]) was 0.5 µg/mL. The MBC (Proteus vulgaris [17]) was 0.5 µg/mL, the MIC (Staphylococcus aureus [18]) was 8 µg/mL and the MBC (Staphylococcus aureus [19]) was 16 µg/mL. The MIC [20] was 4 µg/mL, the MBC [21] was 8 µg/mL and the MIC (Streptococcus pneumoniae [22]) was 128 µg/mL. The MBC (Streptococcus pneumoniae [23]) was 256 µg/mL, the MIC (Serratia marcescens [24]) was 32 µg/mL and the MBC (Serratia marcescens [25]) was 32 µg/mL. It also gave a Ratio (Proteus vulgaris [27]) of 4, a Ratio [28] of 2 and an MIC (Escherichia coli [29]) of 1 µg/mL. The MBC (Escherichia coli [30]) was 2 µg/mL, the Activity (HEK293 [31]) was “Non-Toxic” and the Activity (HEK293 [32]) was “Non-Toxic”. It also gave an MIC (Proteus vulgaris [33]) of 2 µg/mL.
